One assay has as its target T1, PSMB5 (Homo sapiens, UniProt P28074).
T1 construct: recombinant isolated subunit, customized by DetaiBio; His-tag labelling for MST implies His tag
T1 sequence (P28074 60-263): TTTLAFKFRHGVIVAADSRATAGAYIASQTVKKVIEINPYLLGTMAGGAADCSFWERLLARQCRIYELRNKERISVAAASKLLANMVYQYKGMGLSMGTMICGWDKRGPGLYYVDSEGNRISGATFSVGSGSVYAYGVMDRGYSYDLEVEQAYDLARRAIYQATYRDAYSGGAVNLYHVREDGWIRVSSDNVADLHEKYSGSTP
In words: microscale thermophoresis. The format is binding. The note with it: unmodified bortezomib; positive control (protein of the control panel not named in the legend); isolated recombinant subunit. (In general: Microscale thermophoresis detects binding through changes in fluorescence in a small temperature gradient.)

Assay [1] deals with T2, DLD (dihydrolipoamide dehydrogenase) (Homo sapiens, UniProt P09622).
T2 construct: recombinant, customized by DetaiBio; His-tag labelling (RED-tris-NTA) for MST implies His tag
T2 sequence (P09622 36-509): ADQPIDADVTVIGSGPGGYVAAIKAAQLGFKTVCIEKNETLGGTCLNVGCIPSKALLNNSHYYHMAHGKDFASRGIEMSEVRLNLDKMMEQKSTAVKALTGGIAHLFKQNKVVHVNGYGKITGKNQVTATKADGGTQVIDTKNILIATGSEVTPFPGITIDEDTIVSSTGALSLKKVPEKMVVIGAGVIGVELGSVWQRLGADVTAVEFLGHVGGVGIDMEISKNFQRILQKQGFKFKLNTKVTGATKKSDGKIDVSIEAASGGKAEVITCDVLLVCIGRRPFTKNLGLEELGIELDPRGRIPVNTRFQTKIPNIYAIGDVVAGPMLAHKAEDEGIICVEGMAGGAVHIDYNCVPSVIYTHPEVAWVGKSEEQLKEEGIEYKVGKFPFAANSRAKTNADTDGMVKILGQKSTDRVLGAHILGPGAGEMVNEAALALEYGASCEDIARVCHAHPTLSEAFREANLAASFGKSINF
As to the kind of experiment: microscale thermophoresis. The format is binding. The following applies: unmodified bortezomib; His-tag RED-tris-NTA labelled protein; unit not given.

For the compound `CC(C)C[C@H](NC(=O)[C@H](Cc1ccccc1)NC(=O)c1cnccn1)B(O)O` [bortezomib], the KD entry was “binding affinity of BTZ to DLD and to PSMB5” on PSMB5; 1.38 ± 0.51 E-7 in assay [1].
